Drawing on patent US10414740B2, “Glutaminase inhibitors and method of use” (Agios Pharmaceuticals, Inc., priority 2012, dated 2019), this text covers IC50 for 17 compounds.

pIC50: −log10 of the molar value. A value given as a limit tells only on which side of the number the result lay.

The pIC50 is the negative decadic logarithm of the IC50, by convention in mol/L. High values mean a low IC50, low ones a high IC50.

The target in this assay is T1, glutaminase (GAC) (Homo sapiens, UniProt O94925).
T1 sequence (O94925 55-598 isoform O94925-3 limits assumed): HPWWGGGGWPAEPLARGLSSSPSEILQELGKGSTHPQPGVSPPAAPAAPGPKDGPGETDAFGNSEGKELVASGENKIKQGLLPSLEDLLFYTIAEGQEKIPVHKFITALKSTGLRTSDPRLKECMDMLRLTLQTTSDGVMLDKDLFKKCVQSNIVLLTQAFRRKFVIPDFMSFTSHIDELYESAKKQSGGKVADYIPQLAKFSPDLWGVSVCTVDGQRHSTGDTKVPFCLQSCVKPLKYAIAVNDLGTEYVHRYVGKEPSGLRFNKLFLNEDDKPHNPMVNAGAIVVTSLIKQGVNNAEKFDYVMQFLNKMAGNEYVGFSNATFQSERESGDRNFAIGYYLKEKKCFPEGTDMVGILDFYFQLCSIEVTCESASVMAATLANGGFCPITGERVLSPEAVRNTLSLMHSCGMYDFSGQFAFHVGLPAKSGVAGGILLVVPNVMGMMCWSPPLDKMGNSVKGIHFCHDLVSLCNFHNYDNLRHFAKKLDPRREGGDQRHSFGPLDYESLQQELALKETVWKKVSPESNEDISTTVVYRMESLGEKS
The assay can be described thus: glutaminase coupled endpoint assay (Example A). The class given is biochemical. The following applies: inhibition of glutaminase; IC50 tested in an assay of Example A or Example B. The method, then:
In this example, the enzymatic activity of glutaminase is measured through a coupled endpoint assay. […] The glutamate produced is converted to 2-OG by a kinetic excess of glutamate dehydrogenase. […] However, a kinetic excess of the third coupling enzyme, diaphorase, recycles NAD from NADH to keep the NAD concentration constant during the timecourse of the assay. Diaphorase, also supplied in kinetic excess, oxidizes NADH produced by GDH back to NAD with the concomitant reduction of rezasurin to the highly fluorescent resorufin. […] A reduction in the signal indicates inhibition of some component of the coupled enzyme system. Prospective hits are counterscreened against GDH/diaphorase alone to remove hits to the coupling enzyme system in a second assay.
2. […] Add 1 μl a compound in 100% DMSO 2. Add 40 μl of Enzyme Mix and incubate for 60 minute at room temperature 3. Add 10 μl of Substrate Mix to start reaction 4.
`O=C(CCc1ccccc1Cl)Nc1nnc(CCCCc2nnc(NC(=O)CCc3ccccc3Cl)s2)s1` [Compound 91, N,N′-(5,5′-(butane-1,4-diyl)bis(1,3,4-thiadiazole-5,2-diyl))bis(3-(2-chlorophenyl)propanamide)]: the pIC50 was 6.30 to 7.00.

With `O=C(CCN1CCCCC1)Nc1nnc(CCCCc2nnc(NC(=O)CCN3CCCCC3)s2)s1` [Compound 59], the negative logarithm of the IC50 (pIC50) is 5.00 to 6.00.

In the case of `O=C(CCCC1CCCCC1)Nc1nnc(CCCCc2nnc(NC(=O)CCCC3CCCCC3)s2)s1` [Compound 80, N,N′-(5,5′-(butane-1,4-diyl)bis(1,3,4-thiadiazole-5,2-diyl))bis(4-cyclohexylbutanamide)], the pIC50 is 6.00 to 6.30.

Take `O=C(Cc1ccccc1)Nc1nnc(CCCCCCc2nnc(NC(=O)Cc3ccccc3)s2)s1` [Compound 12, N,N′-(5,5′-(hexane-1,6-diyl)bis(1,3,4-thiadiazole-5,2-diyl))bis(2-phenylacetamide)]: the negative-log IC50 (pIC50) is 5.00 to 6.00.

With `Nc1nnc(CCCCc2nnc(NC(=O)CCc3ccccc3O)s2)s1` [Compound 44], the pIC50 was 5.00 to 6.00.

Take `O=C(Cc1c[nH]c2ccccc12)Nc1nnc(CCCCc2nnc(NC(=O)Cc3c[nH]c4ccccc34)s2)s1` [Compound 87, N,N′-(5,5′-(butane-1,4-diyl)bis(1,3,4-thiadiazole-5,2-diyl))bis(2-(1H-indol-3-yl)acetamide)]: the pIC50 was more than 7.00.

Turning to `O=C(NCc1ccccc1)c1nnc(CCCCc2nnc(C(=O)NCc3ccccc3)s2)s1` [Compound 100], the pIC50 is 6.30 to 7.00.

The compound `COc1cccc(CCC(=O)Nc2nnc(CCCCc3nnc(NC(=O)CCc4cccc(OC)c4)s3)s2)c1` [Compound 53, N,N′-(5,5′-(butane-1,4-diyl)bis(1,3,4-thiadiazole-5,2-diyl))bis(3-(3-methoxyphenyl)propanamide)] had a pIC50 of more than 7.00.

In the case of `CC(=O)Nc1nnc(CCCCc2nnc(NC(C)=O)s2)s1` [Compound 94, N,N′-(5,5′-(butane-1,4-diyl)bis(1,3,4-thiadiazole-5,2-diyl))diacetamide], the pIC50 was 6.00 to 6.30.

`O=C(Nc1nnc(CCCCc2nnc(NC(=O)C3CCC3)s2)s1)C1CCC1` [Compound 102, N,N′-(5,5′-(butane-1,4-diyl)bis(1,3,4-thiadiazole-5,2-diyl))dicyclobutanecarboxamide] gave a negative logarithm of the IC50 (pIC50) of 6.00 to 6.30.

With `CC(=O)Oc1cccc(C(=O)Nc2nnc(CCCCc3nnc(NC(=O)c4cccc(OC(C)=O)c4C)s3)s2)c1C` [Compound 58], the pIC50 is 5.00 to 6.00.

As for `CC(C)(C(=O)Nc1nnc(CCCCc2nnc(NC(=O)C(C)(C)c3ccccc3)s2)s1)c1ccccc1` [Compound 88, N,N′-(5,5′-(butane-1,4-diyl)bis(1,3,4-thiadiazole-5,2-diyl))bis(2-methyl-2-phenylpropanamide)], the pIC50 is 6.00 to 6.30.

Take `O=C(CNC(=O)c1ccccc1)Nc1nnc(CCCCc2nnc(NC(=O)CNC(=O)c3ccccc3)s2)s1` [Compound 103, N,N′-(2,2′-(5,5′-(butane-1,4-diyl)bis(1,3,4-thiadiazole-5,2-diyl))bis(azanediyl)bis(2-oxoethane-2,1-diyl))dibenzamide]: the negative-log IC50 (pIC50) was 6.00 to 6.30.

`O=C(Cc1cccc2ccccc12)Nc1nnc(CCCCc2nnc(NC(=O)Cc3cccc4ccccc34)s2)s1` [Compound 51, N,N′-(5,5′-(butane-1,4-diyl)bis(1,3,4-thiadiazole-5,2-diyl))bis(2-(naphthalen-1-yl)acetamide)] showed a pIC50 of 6.30 to 7.00.

`O=C(Nc1nnc(CCCCc2nnc(NC(=O)C3(c4ccccc4)CC3)s2)s1)C1(c2ccccc2)CC1` [Compound 84]: the negative logarithm of the IC50 (pIC50) is 5.00 to 6.00.

Turning to `O=C(CCCc1ccccc1)Nc1nnc(CCCCc2nnc(NC(=O)CCCc3ccccc3)s2)s1` [Compound 82, N,N′-(5,5′-(butane-1,4-diyl)bis(1,3,4-thiadiazole-5,2-diyl))bis(4-phenylbutanamide)], the negative logarithm of the IC50 (pIC50) was 6.30 to 7.00.

Consider `O=C(Cc1cccnc1)Nc1nnc(CCCCCc2nnc(NC(=O)Cc3cccnc3)s2)s1` [Compound 10, N,N′-(5,5′-(pentane-1,5-diyl)bis(1,3,4-thiadiazole-5,2-diyl))bis(2-(pyridin-3-yl)acetamide)], for which the pIC50 was 6.30 to 7.00.
